Tests used:
A549 = assay: Antiproliferative activity against human A549 cells assessed as reduction in cell viability incubated for 72 hrs by MTT assay; assay type: functional, cell-based; details: A549, 72 h
[1] = biological target: T1, Short transient receptor potential channel 6 (Mus musculus) (UniProt Q61143); assay: Antagonist activity at mouse TRPC6 stably expressed in HEK293 cells assessed as inhibition of calcium influx at 10 uM by calcium fluorescence assay relative to control; assay type: cell-based; details: filed as antagonist
T1 sequence (whole entry): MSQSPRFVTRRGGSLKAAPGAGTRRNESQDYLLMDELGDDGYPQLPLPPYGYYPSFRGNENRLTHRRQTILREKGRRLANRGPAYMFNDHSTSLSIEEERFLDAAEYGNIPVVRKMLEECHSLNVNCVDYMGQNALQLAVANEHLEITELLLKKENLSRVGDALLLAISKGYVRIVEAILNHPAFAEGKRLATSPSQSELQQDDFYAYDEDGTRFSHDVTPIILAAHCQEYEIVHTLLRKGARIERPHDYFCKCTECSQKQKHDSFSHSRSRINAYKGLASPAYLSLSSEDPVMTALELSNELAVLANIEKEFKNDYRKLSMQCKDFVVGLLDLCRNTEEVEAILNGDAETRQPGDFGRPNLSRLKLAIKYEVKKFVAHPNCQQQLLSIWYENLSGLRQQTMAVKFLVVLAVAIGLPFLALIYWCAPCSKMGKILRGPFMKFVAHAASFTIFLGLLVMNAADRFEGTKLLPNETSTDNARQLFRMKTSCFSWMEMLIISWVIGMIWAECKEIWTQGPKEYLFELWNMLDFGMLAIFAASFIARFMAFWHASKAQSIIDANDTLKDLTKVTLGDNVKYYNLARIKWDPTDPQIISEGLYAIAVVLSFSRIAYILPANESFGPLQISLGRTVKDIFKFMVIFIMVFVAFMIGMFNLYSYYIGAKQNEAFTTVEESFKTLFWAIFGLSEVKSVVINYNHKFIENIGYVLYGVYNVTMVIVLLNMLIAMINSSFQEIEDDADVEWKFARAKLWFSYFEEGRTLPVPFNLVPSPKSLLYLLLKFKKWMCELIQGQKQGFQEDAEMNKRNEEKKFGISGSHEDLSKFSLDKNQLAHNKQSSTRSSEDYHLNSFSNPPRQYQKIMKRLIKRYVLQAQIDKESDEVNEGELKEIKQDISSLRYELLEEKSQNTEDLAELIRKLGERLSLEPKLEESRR

[2] = biological target: T2, Short transient receptor potential channel 3 (Homo sapiens, UniProt Q13507); assay: Antagonist activity at human TRPC3 stably expressed in HEK293 cells inhibition of calcium influx by calcium fluorescence assay; assay type: cell-based
T2 sequence (Q13507 whole entry): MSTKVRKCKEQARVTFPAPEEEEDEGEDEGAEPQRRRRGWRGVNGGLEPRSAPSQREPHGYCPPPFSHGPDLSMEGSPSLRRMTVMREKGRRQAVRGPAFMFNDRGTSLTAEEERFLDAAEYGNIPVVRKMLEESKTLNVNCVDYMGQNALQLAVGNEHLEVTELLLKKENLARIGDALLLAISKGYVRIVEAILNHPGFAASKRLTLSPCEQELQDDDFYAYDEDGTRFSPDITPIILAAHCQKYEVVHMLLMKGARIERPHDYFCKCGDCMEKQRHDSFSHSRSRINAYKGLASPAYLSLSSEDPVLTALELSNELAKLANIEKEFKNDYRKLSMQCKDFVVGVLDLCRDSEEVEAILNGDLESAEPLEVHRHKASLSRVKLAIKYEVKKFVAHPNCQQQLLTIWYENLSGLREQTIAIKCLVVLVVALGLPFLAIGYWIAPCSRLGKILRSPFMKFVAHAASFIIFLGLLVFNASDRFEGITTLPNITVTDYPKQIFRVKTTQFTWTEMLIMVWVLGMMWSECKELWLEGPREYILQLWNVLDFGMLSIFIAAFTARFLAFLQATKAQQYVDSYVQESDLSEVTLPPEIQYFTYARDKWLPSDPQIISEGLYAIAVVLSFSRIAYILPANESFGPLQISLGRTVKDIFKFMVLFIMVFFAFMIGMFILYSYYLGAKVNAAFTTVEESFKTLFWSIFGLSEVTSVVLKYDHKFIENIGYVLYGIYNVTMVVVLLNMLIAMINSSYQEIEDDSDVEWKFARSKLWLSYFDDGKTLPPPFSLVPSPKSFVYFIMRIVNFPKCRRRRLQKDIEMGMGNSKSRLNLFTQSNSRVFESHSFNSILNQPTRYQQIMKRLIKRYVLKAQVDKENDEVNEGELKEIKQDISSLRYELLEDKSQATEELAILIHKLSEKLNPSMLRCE

[3] = biological target: T3, Short transient receptor potential channel 7 (Homo sapiens, UniProt Q9HCX4); assay: Antagonist activity at human TRPC7 stably expressed in HEK293 cells inhibition of calcium influx by calcium fluorescence assay; assay type: cell-based
T3 sequence (Q9HCX4 whole entry): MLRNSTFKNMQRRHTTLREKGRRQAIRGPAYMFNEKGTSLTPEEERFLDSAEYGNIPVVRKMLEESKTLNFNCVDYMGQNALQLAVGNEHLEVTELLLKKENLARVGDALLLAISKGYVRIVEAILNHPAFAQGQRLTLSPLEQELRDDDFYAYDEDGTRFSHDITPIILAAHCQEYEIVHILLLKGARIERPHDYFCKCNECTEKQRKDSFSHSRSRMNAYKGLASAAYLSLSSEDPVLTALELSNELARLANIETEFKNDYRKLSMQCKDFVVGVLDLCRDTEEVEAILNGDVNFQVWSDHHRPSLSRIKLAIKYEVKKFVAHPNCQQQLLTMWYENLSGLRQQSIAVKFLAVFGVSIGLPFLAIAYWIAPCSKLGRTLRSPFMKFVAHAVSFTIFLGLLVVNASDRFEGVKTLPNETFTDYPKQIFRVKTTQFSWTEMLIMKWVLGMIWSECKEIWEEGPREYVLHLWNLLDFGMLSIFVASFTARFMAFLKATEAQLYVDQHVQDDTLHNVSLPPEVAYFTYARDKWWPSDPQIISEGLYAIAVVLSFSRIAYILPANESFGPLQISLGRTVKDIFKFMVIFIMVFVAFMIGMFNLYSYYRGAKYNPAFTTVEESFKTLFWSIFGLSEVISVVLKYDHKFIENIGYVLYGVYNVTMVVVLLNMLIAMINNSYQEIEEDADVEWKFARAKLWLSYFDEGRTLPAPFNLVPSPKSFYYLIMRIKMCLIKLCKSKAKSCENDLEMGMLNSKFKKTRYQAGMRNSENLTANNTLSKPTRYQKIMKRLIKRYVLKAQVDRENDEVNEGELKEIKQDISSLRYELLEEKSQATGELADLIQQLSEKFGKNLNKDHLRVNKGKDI

Question: What does the source list for `NCCN(Cc1ccc2ccccc2c1)c1nc(C(=O)Nc2ccc(O)cc2)cs1`?
Answer: IC50 (A549): 21.1 µM; inhibition [1]: 100%; IC50 [2]: 2.4 µM; IC50 [3]: 3.4 µM
